Source: patent US11590116B2 (THERAVANCE BIOPHARMA R&D IP, LLC, priority 2019, dated 2023)

Legend:
[1] = molecular target: T1, recombinant human ALK5 (TGF-βR1) protein (Homo sapiens, UniProt P36897); assay: Biochemical ALK5 (TGF-βR1) assay to measure pKi (LANCE Ultra ULight kinase assay); details: apparent pKi from pIC50 by Cheng-Prusoff, read-out: ALK5 pKi (converted)
T1 construct: purchased Life Technologies PR9075A
T1 sequence (P36897 34-503): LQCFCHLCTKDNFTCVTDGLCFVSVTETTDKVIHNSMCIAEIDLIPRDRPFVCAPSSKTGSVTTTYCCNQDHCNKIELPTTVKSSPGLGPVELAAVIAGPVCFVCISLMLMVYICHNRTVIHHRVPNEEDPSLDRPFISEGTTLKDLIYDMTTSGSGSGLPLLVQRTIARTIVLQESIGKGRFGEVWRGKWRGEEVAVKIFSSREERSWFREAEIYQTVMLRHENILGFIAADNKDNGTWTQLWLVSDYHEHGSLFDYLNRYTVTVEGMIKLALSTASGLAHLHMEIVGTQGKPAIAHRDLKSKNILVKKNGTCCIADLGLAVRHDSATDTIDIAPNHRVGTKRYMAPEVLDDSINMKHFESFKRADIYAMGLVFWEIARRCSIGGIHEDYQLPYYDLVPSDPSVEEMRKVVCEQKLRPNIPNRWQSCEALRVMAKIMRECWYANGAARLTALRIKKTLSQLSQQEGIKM
Summary of the method: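 Dose range 10 μM–25 pM; enzyme + compound 60 min RT; ATP added (5× stock 125 μM, 2 mM DTT); 60 min 37 °C; stop with EDTA + Eu anti-phospho-Topo IIα Thr1342 Ab; TR-FRET ex 320/340, em 665 nm. 4-param pIC50 → pKi (Cheng-Prusoff).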

[2] = tested on: TGF-β-stimulated SMAD3 phosphorylation in BEAS-2B cells; assay: Cellular ALK5 potency assay, inhibition of TGF-β stimulated pSMAD3 formation in BEAS-2B cells; type: cell-based; details: Homo sapiens; inhibition of TGF-β stimulated pSMAD3 formation, BEAS-2B cells; read-out: BEAS2B pIC50 (converted)
Summary of the method: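 Potency is reported as pIC50, derived from concentration-dependent reduction of pSMAD3 AlphaLISA signal against TGF-β-stimulated cells without compound. BEAS-2B cells received compound for 1 h before a 30-min stimulation with 10 ng/mL TGF-β.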

Row | Ki [1] | SMILES | IC50 [2]
1 | 0.0398 to 0.316 nM | CNCCN1CCn2cc(-c3cnc4ccc(-c5c[nH]nc5-c5cccc(C)n5)nc4c3)nc2C1 [Compound 262, N-methyl-2-[2-[6-[3-(6-methyl-2-pyridyl)-1H-pyrazol-4-yl]-1,5-naphthyridin-3-yl]-6,8-dihydro-5H-imidazo[1,2-a]pyrazin-7-yl]ethanamine] | 200 to 1260 nM
2 | 0.0398 to 0.316 nM | Cc1cccc(-c2[nH]cnc2-c2ccc3ncc(C(=O)OCCCC4CCNCC4)cc3c2)n1 [Compound 1132, 3-(4-piperidyl)propyl 6-[5-(6-methyl-2-pyridyl)-1H-imidazol-4-yl]quinoline-3-carboxylate] | 25.1 to 158 nM
3 | 0.398 to 3.16 nM | CNCc1ccnc2ccc(-c3c[nH]nc3-c3cccc(C)n3)cc12 [Compound 549, N-methyl-1-[6-[3-(6-methyl-2-pyridyl)-1H-pyrazol-4-yl]-4-quinolyl]methanamine] | 25.1 to 158 nM
4 | 0.0398 to 0.316 nM | Cc1cccc(-c2[nH]ncc2-c2ccc3ncc(C(=O)OCC4CNC4)cc3n2)n1 [Compound 419, azetidin-3-ylmethyl 6-[5-(6-methyl-2-pyridyl)-1H-pyrazol-4-yl]-1,5-naphthyridine-3-carboxylate] | 25.1 to 158 nM
5 | 0.0398 to 0.316 nM | CNCCn1cc(-c2cnc3ccc(-c4c(-c5cccc(C)n5)[nH]c5ccccc45)cc3c2)cn1 [Compound 162, N-methyl-2-[4-[6-[2-(6-methyl-2-pyridyl)-1H-indol-3-yl]-3-quinolyl]pyrazol-1-yl]ethanamine] | 200 to 1260 nM
6 | 0.0398 to 0.316 nM | Cc1nc(-c2n[nH]cc2-c2ccc3ncc(-c4nnn5c4CNCC5)cc3n2)ccc1F [Compound 466, 2-[3-(5-fluoro-6-methyl-2-pyridyl)-1H-pyrazol-4-yl]-7-(4,5,6,7-tetrahydrotriazolo[1,5-a]pyrazin-3-yl)-1,5-naphthyridine] | 25.1 to 158 nM
7 | 0.0398 to 0.316 nM | Cc1cccc(-c2[nH]cnc2-c2ccc3ncc(C(=O)OCCN4CCC5(CCNCC5)C4)cc3c2)n1 [Compound 896, 2-(2,8-diazaspiro[4.5]decan-2-yl)ethyl 6-(5-(6-methylpyridin-2-yl)-1H-imidazol-4-yl)quinoline-3-carboxylate] | 200 to 1260 nM
8 | 0.0398 to 0.316 nM | Cc1cccc(-c2[nH]cnc2-c2ccc3ncc(-c4cc(C(=O)OCC5CNC5)ccn4)cc3c2)n1 [Compound 1157, azetidin-3-ylmethyl 2-[6-[5-(6-methyl-2-pyridyl)-1H-imidazol-4-yl]-3-quinolyl]pyridine-4-carboxylate] | 25.1 to 158 nM
9 | 0.0398 to 0.316 nM | Cc1cccc(-c2[nH]cnc2-c2ccc3ncc(-c4cccc(C(=O)O[C@H]5CCNC5)c4)cc3c2)n1 [Compound 707, [(3S)-pyrrolidin-3-yl] 3-[6-[5-(6-methyl-2-pyridyl)-1H-imidazol-4-yl]-3-quinolyl]benzoate] | 25.1 to 158 nM
10 | 0.398 to 3.16 nM | Cc1cccc(-c2[nH]cnc2-c2ccc3ncc(C(=O)O[C@@H]4CCCNC4)cc3c2)n1 [Compound 781, [(3R)-3-piperidyl] 6-[5-(6-methyl-2-pyridyl)-1H-imidazol-4-yl]quinoline-3-carboxylate] | 25.1 to 158 nM
11 | 0.0398 to 0.316 nM | Cc1cccc(-c2[nH]cnc2-c2ccc3ncc(C(=O)OC[C@H]4CCCNC4)cc3c2)n1 [Compound 772, [(3S)-3-piperidyl]methyl 6-[5-(6-methyl-2-pyridyl)-1H-imidazol-4-yl]quinoline-3-carboxylate] | 25.1 to 158 nM
12 | 0.0398 to 0.316 nM | Cc1cccc(-c2n[nH]cc2-c2ccc3ncc(-c4cccs4)cc3n2)n1 [Compound 80, 2-[3-(6-methyl-2-pyridyl)-1H-pyrazol-4-yl]-7-(2-thienyl)-1,5-naphthyridine] | 25.1 to 158 nM
13 | 0.0398 to 0.316 nM | Cc1cccc(-c2nc3ccccn3c2-c2ccc3ncc(N4CCC(N5CCN(C)CC5)CC4)cc3n2)n1 [Compound 326, 7-[4-(4-methylpiperazin-1-yl)-1-piperidyl]-2-[2-(6-methyl-2-pyridyl)imidazo[1,2-a]pyridin-3-yl]-1,5-naphthyridine] | 25.1 to 158 nM
14 | 0.0398 to 0.316 nM | Cc1cccc(-c2n[nH]cc2-c2ccc3ncc(-c4nnn5c4CNCC5)cc3n2)n1 [Compound 130, 2-[3-(6-methyl-2-pyridyl)-1H-pyrazol-4-yl]-7-(4,5,6,7-tetrahydrotriazolo[1,5-a]pyrazin-3-yl)-1,5-naphthyridine] | 25.1 to 158 nM
15 | 0.0398 to 0.316 nM | Cc1cccc(-c2[nH]cnc2-c2ccc3ncc(C(=O)OCCN4CCC5NCCC5C4)cc3c2)n1 (centres unmarked) [Compound 1065, 2-(1,2,3,3a,4,6,7,7a-octahydropyrrolo[3,2-c]pyridin-5-yl)ethyl 6-[5-(6-methyl-2-pyridyl)-1H-imidazol-4-yl]quinoline-3-carboxylate] | 200 to 1260 nM
16 | 0.0398 to 0.316 nM | Cc1cccc(-c2[nH]cnc2-c2ccc3ncc(-c4cc(C(=O)O[C@H]5CCNC5)ccn4)cc3c2)n1 [Compound 1060, [(3S)-pyrrolidin-3-yl] 2-[6-[5-(6-methyl-2-pyridyl)-1H-imidazol-4-yl]-3-quinolyl]pyridine-4-carboxylate] | 25.1 to 158 nM
17 | 0.0398 to 0.316 nM | Cc1cccc(-c2n[nH]cc2-c2ccc3ncc(N4CC5CNC5C4)cc3c2)n1 (centres unmarked) [Compound 535, 3-(3,6-diazabicyclo[3.2.0]heptan-3-yl)-6-[3-(6-methyl-2-pyridyl)-1H-pyrazol-4-yl]quinoline] | 25.1 to 158 nM
18 | 0.0398 to 0.316 nM | Cc1cccc(-c2[nH]cnc2-c2ccc3ncc(-c4ccc(C(=O)OC[C@H]5CCCN5)cn4)cc3c2)n1 [Compound 1170, [(2R)-pyrrolidin-2-yl]methyl 6-[6-[5-(6-methyl-2-pyridyl)-1H-imidazol-4-yl]-3-quinolyl]pyridine-3-carboxylate] | 25.1 to 158 nM
19 | 0.0398 to 0.316 nM | Cc1cccc(-c2[nH]cnc2-c2ccc3ncc(-c4ccc(C(=O)OC5CNC5)nc4)cc3c2)n1 [Compound 616, azetidin-3-yl 5-[6-[5-(6-methyl-2-pyridyl)-1H-imidazol-4-yl]-3-quinolyl]pyridine-2-carboxylate] | 25.1 to 158 nM
20 | 0.0398 to 0.316 nM | Cc1cccc(-c2n[nH]cc2-c2ccc3nccc(-c4cnoc4)c3n2)n1 [Compound 832, 4-[6-[3-(6-methyl-2-pyridyl)-1H-pyrazol-4-yl]-1,5-naphthyridin-4-yl]isoxazole] | 25.1 to 158 nM
21 | 0.0398 to 0.316 nM | Cc1cccc(-c2[nH]cnc2-c2ccc3ncc(-c4ncc(C(=O)OCCN5CCNCC5)s4)cc3c2)n1 [Compound 1187, 2-piperazin-1-ylethyl 2-[6-[5-(6-methyl-2-pyridyl)-1H-imidazol-4-yl]-3-quinolyl]thiazole-5-carboxylate] | 25.1 to 158 nM
22 | 0.0398 to 0.316 nM | Cc1cccc(-c2[nH]cnc2-c2ccc3ncc(-c4ccc5c(c4)CCNC5)cc3c2)n1 [Compound 278, 6-[5-(6-methyl-2-pyridyl)-1H-imidazol-4-yl]-3-(1,2,3,4-tetrahydroisoquinolin-6-yl)quinoline] | < 20 nM
23 | 0.0398 to 0.316 nM | Cc1nc(-c2n[nH]cc2-c2ccc3ncc(-c4ncn5c4CNCC5)cc3n2)ccc1F [Compound 107, 2-[3-(5-fluoro-6-methyl-2-pyridyl)-1H-pyrazol-4-yl]-7-(5,6,7,8-tetrahydroimidazo[1,5-a]pyrazin-1-yl)-1,5-naphthyridine] | 25.1 to 158 nM
24 | 0.0398 to 0.316 nM | Cc1cccc(-c2[nH]cnc2-c2ccc3ncc(C4=CCC(NC(=O)CSC5CCOC5=O)CC4)cc3c2)n1 (centres unmarked) [Compound 98, N-(4-(6-(5-(6-methylpyridin-2-yl)-1H-imidazol-4-yl)quinolin-3-yl)cyclohex-3-en-1-yl)-2-((2-oxotetrahydrofuran-3-yl)thio)acetamide] | 25.1 to 158 nM
25 | 0.0398 to 0.316 nM | Cc1cccc(-c2[nH]cnc2-c2ccc3ncc(-c4ccc(CN5C[C@@H](C)N[C@@H](C)C5)nc4)cc3c2)n1 [Compound 1045, 3-(6-(((3S,5R)-3,5-dimethylpiperazin-1-yl)methyl)pyridin-3-yl)-6-(5-(6-methylpyridin-2-yl)-1H-imidazol-4-yl)quinoline] | 25.1 to 158 nM
26 | 0.0398 to 0.316 nM | Cc1cccc(-c2[nH]cnc2-c2ccc3ncc(-c4csc(C(=O)O)c4)cc3c2)n1 [Compound 798, 4-(6-(5-(6-methylpyridin-2-yl)-1H-imidazol-4-yl)quinolin-3-yl)thiophene-2-carboxylic acid] | 1580 to 10000 nM
27 | < 0.0316 nM | Cc1cccc(-c2[nH]cnc2-c2ccc3ncc(-c4ccc(C(=O)O)nc4)cc3c2)n1 [Compound 541, 5-(6-(5-(6-methylpyridin-2-yl)-1H-imidazol-4-yl)quinolin-3-yl)picolinic Acid] | 1580 to 10000 nM
28 | 0.0398 to 0.316 nM | Cc1cccc(-c2[nH]cnc2-c2ccc3ncc(NCCN4CC5(CCCNC5)C4)cc3c2)n1 [Compound 733, N-[2-(2,8-diazaspiro[3.5]nonan-2-yl)ethyl]-6-[5-(6-methyl-2-pyridyl)-1H-imidazol-4-yl]quinolin-3-amine] | 200 to 1260 nM
